Data published in patent EP4656642A1, “ESTROGEN RECEPTOR PROTEOLYSIS TARGETING CHIMERA COMPOUND AND USE THEREOF” (GAN & LEE PHARM CO., LTD, priority 2023, dated 2024).
Read-outs that look alike come from different tables or passages of the source.

Legend:
Format in all cases: cell-based
[1] = biological target: T1, AR protein (Homo sapiens, UniProt P10275, T878A); assay: Degradation of AR protein in LNCAP cells (Western blot, 8 h); settings: LNCaP FGC cells
T1 construct: host or cells: LNCaP FGC
T1 sequence (P10275 1-920 T878A): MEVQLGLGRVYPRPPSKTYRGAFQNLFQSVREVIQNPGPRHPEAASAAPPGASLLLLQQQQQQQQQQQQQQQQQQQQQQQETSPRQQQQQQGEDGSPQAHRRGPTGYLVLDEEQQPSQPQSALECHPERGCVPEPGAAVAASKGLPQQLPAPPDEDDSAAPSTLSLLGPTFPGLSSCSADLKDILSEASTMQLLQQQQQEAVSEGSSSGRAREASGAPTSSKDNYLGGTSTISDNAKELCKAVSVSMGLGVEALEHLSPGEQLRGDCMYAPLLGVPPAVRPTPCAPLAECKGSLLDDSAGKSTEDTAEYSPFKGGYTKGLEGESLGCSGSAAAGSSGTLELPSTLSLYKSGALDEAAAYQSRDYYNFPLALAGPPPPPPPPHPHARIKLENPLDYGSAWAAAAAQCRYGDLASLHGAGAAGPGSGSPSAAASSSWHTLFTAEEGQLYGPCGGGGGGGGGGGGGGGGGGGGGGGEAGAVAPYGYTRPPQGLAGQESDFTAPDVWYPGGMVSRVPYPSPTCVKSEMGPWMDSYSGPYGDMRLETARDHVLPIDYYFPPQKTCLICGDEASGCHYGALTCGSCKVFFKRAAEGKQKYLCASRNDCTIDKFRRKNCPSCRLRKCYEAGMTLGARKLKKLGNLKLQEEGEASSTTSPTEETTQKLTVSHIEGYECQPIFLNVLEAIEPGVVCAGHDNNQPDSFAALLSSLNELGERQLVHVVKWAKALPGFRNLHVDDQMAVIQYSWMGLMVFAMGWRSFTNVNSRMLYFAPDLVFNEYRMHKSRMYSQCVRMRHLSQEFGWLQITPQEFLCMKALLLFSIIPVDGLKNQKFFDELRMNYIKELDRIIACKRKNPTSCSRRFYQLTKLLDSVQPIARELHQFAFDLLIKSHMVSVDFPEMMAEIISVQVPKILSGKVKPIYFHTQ
Method: After 8 h, the culture medium was discarded, and the cells were washed with PBS. After the cells were washed with PBS, RIPA lysis buffer containing 1% Protease Inhibitor Cocktail was added, and the total protein extract was obtained after lysis and centrifugation, and the protein concentration in the extract was detected by BCA method. Protein electrophoresis was carried out by SDS-PAGE, after which the proteins were transferred to PVDF (Millipore Sigma Catalog No. PSRP010R5) membrane by 100V constant voltage electrotransfer for 60 min, and the PVDF membrane was placed in 1×TBST solution with 5% milk and blocked at room temperature for 1h. […] The primary antibody solution was discarded, and the PVDF membrane was washed three times with 1× TBST for 5 min each. […] The secondary antibody solution was discarded, and the PVDF membrane was washed three times with 1× TBST for 5 min each. Western membrane imaging was performed using a dual-color infrared laser imaging system (Licor catalog number Odyssey CLX). Bands were analyzed in grayscale using the software Image Studio. For each sample, GAPDH protein bands were detected as internal reference. The degradation rates of the AR protein for the compounds and positive control sample were calculated based on the grayscale of the protein bands.

[2] = test system: LNCAP FGC cells; assay: Inhibition of LNCAP cell proliferation (WST-8, 96 hours)
Method: Test Example 8 Inhibitory activity of the compounds disclosed in the present disclosure on LNCAP cell proliferation
LNCAP FGC cells (ATCC, CLR-1740) were cultured in RPMI 1640 (ATCC, 30-2001) complete medium containing 10% fetal bovine serum (Hyclone, SH30406.05). On the first day of the experiment, LNCaP FGC cells were inoculated in 96-well plates at a density of 5,000 cells/well using RPMI 1640 medium containing 10% fetal bovine serum, with 100µL of cell suspension per well, and placed in a cell culture incubator with 5% CO2 at 37°C overnight. […] The compound concentrations were prepared in complete […] medium and serially diluted 5-fold starting from 10 µM, resulting in a total of nine concentration points. Wells receiving 100 µL of RPMI 1640 medium containing 10% FBS only were used as controls. The plates were incubated at 37°C in a 5% CO2 incubator for 96 hours.

[3] = test system: VCaP cells; assay: Inhibition of proliferation of VCaP cells (WST-8, 168 hours)
Method: Test Example 7 Inhibitory activity of the compounds disclosed in the present disclosure on the proliferation of VCaP cells
VCaP cells (ATCC, CRL-2876) were cultured in DMEM (Gibco, 11995-065) complete medium containing 10% fetal bovine serum (Hyclone, SH30406.05). On the first day of the experiment, VCaP cells were inoculated in 96-well plates at a density of 15,000 cells/well using DMEM medium containing 10% fetal bovine serum, with 100µL of cell suspension per well, and placed in a cell culture incubator with 5% CO2 at 37°C overnight. […] The compound concentrations were prepared in complete DMEM medium and serially diluted 5-fold starting from 10 µM, resulting in a total of nine concentration points. Wells receiving 100 µL of DMEM medium containing 10% FBS only were used as blank controls. The plates were incubated at 37°C in a 5% CO2 incubator for 168 hours.

What does the source list for `COc1cc(O[C@H]2CC[C@H](NC(=O)c3ccc(N4CCC(CN5CCC6(CC5)COc5c6ccc6c5C(=O)N(C5CCC(=O)NC5=O)C6)(OC)CC4)nn3)CC2)ccc1C#N` (relative stereo) [2-264]?
Degradation rates of the AR protein in LNCAP cells, 10 nM (%) ([1]; 10 nM): 52%; Degradation rates of the AR protein in LNCAP cells, 100 nM (%) ([1]; 100 nM): 71%; IC50 ([2]; LNCAP FGC cells, 96 hours, WST-8): 33600 nM; IC50 ([3]; VCaP cells, 168 hours, WST-8): 3 nM

`COC1(CN2CCC3(CCc4cc5c(cc4O3)C(=O)N(C3CCC(=O)NC3=O)C5)CC2)CCN(c2ccc(N3CCC4(CC3)C[C@H](C)N(c3ccc(C#N)c(Cl)c3)C4)cc2)CC1` (some centres unmarked) [2-99] was tested. Which IC50 [2] did it give?
The IC50 was 2710 nM.

What about the IC50 [3] of the same molecule?
The IC50 was 7 nM.

Which results are given for `C[C@H]1CC2(CCN(c3ccc(N4CCC(C)(CN5CCC6(CCc7cc8c(cc7O6)C(=O)N(C6CCC(=O)NC6=O)C8)CC5)CC4)cc3)CC2)CN1c1ccc(C#N)c(Cl)c1` (some centres unmarked) [2-101]?
IC50 [2]: 5080 nM; IC50 [3]: 10 nM
